The record followed here is patent US9802927B2, “Oxadiazine compounds and methods of use thereof” (Denali Therapeutics, Inc., priority 2015, dated 2017).

One assay concerns Aβ42. Briefly: In vitro cell screening assay in H4 cells expressing human APP751: Aβ42 by sandwich ELISA. In kind it is cell-based. Conditions: Homo sapiens, compounds 0.003-10 μM, incubated overnight (16-18 h), sandwich ELISA of supernatant. The gist of the method: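 Secreted Aβ42 measured by sandwich ELISA, C-terminal-specific capture and 4G8-HRP detection, TMB read at 450 nm, from supernatants of APP751-expressing H4 cells exposed overnight (16-18 h) to 0.003-10 μM compound in Pro293 medium, 0.33% DMSO. Data scaled between DMSO and DAPT controls; EC50 from variable-slope nonlinear regression.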
By EC50 is commonly meant the concentration needed to bring the measured effect to its halfway point. In turn, `COc1nc(C2=NOCC(c3cn(C)c4cccc(Cl)c34)N2)ccc1-n1cnc(C)c1` (single isomer, unassigned; (+)) [Example 229A, (+)-5-(4-chloro-1-methyl-1H-indol-3-yl)-3-(6-methoxy-5-(4-methyl-1H-imidazol-1-yl)pyridin-2-yl)-5,6-dihydro-4H-1,2,4-oxadiazine] registered a half-maximal effective concentration (EC50) of 28.8 nM.

Still in this assay, the particulars now being: compounds 0.003-10 μM, incubated overnight (16-18 h), sandwich ELISA of supernatant.
Compound `COc1nc(C2=NOCC(c3cn(C)c4ncc(C(F)(F)F)cc34)N2)ccc1-n1cnc(C)c1` (single isomer, unassigned; (+)) [Example 206B, (+)-3-(6-methoxy-5-(4-methyl-1H-imidazol-1-yl)pyridin-2-yl)-5-(1-methyl-5-(trifluoromethyl)-1H-pyrrolo [2,3-b]pyridin-3-yl)-5,6-dihydro-4H-1,2,4-oxadiazine] had an EC50 of 5 nM.

For the compound `COc1nc(C2=NOCC(c3nc4ccccc4s3)N2)ccc1-n1cnc(C)c1` (single isomer, unassigned; (+)) [Example 208B, (+)-5-(benzo [d]thiazol-2-yl)-3-(6-methoxy-5-(4-methyl-1H-imidazol-1-yl)pyridin-2-yl)-5,6-dihydro-4H-1,2,4-oxadiazine], the EC50 was 74 nM.

On to `COc1cc(C2=NOCC(c3nc4cccc(C)c4o3)N2C)ccc1-n1cnc(C)c1` (single isomer, unassigned; (+)) [Example 212A, (+)-2-(3-(3-methoxy-4-(4-methyl-1H-imidazol-1-yl)phenyl)-4-methyl-5,6-dihydro-4H-1,2,4-oxadiazin-5-yl)-7-methylbenzo[d]oxazole], for which the EC50 was found to be 789 nM.

Consider `COc1nc(C2=NOCC(c3cccc(S(C)(=O)=O)c3)N2)ccc1-n1cnc(C)c1` (single isomer, unassigned; (+)) [Example 214B, (+)-3-(6-methoxy-5-(4-methyl-1H-imidazol-1-yl)pyridin-2-yl)-5-(3-(methylsulfonyl)phenyl)-5,6-dihydro-4H-1,2,4-oxadiazine], for which the midpoint of the response, the EC50, lay at 904 nM.

`COc1nc(C2=NOCC(c3ccc4sc(C)nc4c3)N2)ccc1-n1cnc(C)c1` (single isomer, unassigned; (+)) [Example 215B, (+)-3-(6-methoxy-5-(4-methyl-1H-imidazol-1-yl)pyridin-2-yl)-5-(2-methylbenzo[d]thiazol-5-yl)-5,6-dihydro-4H-1,2,4-oxadiazine] yielded an EC50 of 52.7 nM.

`COc1nc(C2=NOCC(c3cn(C)c4cc(F)c(Cl)cc34)N2)ccc1-n1cnc(C)c1` (single isomer, unassigned; (+)) [Example 216B, (+)-5-(5-chloro-6-fluoro-1-methyl-1H-indol-3-yl)-3-(6-methoxy-5-(4-methyl-1H-imidazol-1-yl)pyridin-2-yl)-5,6-dihydro-4H-1,2,4-oxadiazine] displayed an EC50 of 4.2 nM.

Regarding `COc1nc(C2=NOCC(c3ccc(S(C)(=O)=O)cc3)N2)ccc1-n1cnc(C)c1` (single isomer, unassigned; (+)) [Example 217B, (+)-3-(6-methoxy-5-(4-methyl-1H-imidazol-1-yl)pyridin-2-yl)-5-(4-(methylsulfonyl)phenyl)-5,6-dihydro-4H-1,2,4-oxadiazine], the EC50 turned out to be 2050 nM.

`COc1nc(C2=NOCC(c3ccc(C)c(Cl)c3)N2)ccc1-n1cnc(C)c1` (single isomer, unassigned; (+)) [Example 218B, (+)-5-(3-chloro-4-methylphenyl)-3-(6-methoxy-5-(4-methyl-1H-imidazol-1-yl)pyridin-2-yl)-5,6-dihydro-4H-1,2,4-oxadiazine] yielded an EC50 of 14.1 nM.

With `COc1nc(C2=NOCC(c3cn(C(C)C)c4cc(F)ccc34)N2)ccc1-n1cnc(C)c1` (single isomer, unassigned; (+)) [Example 219A, (+)-5-(6-fluoro-1-isopropyl-1H-indol-3-yl)-3-(6-methoxy-5-(4-methyl-1H-imidazol-1-yl)pyridin-2-yl)-5,6-dihydro-4H-1,2,4-oxadiazine], the EC50 was found to be 9.2 nM.

With `COc1nc(C2=NOCC(c3cn(C)c4ccc(F)c(F)c34)N2)ccc1-n1cnc(C)c1` (single isomer, unassigned; (+)) [Example 220B, (+)-5-(4,5-difluoro-1-methyl-1H-indol-3-yl)-3-(6-methoxy-5-(4-methyl-1H-imidazol-1-yl)pyridin-2-yl)-5,6-dihydro-4H-1,2,4-oxadiazine], the EC50 was 5.5 nM.

In turn, `COc1nc(C2=NOCC(c3cn(C)c4ccc(C5CC5)cc34)N2)ccc1-n1cnc(C)c1` (single isomer, unassigned; (+)) [Example 221B, (+)-5-(5-cyclopropyl-1-methyl-1H-indol-3-yl)-3-(6-methoxy-5-(4-methyl-1H-imidazol-1-yl)pyridin-2-yl)-5,6-dihydro-4H-1,2,4-oxadiazine] had an EC50 of 2.9 nM.

`COc1nc(C2=NOCC(c3cn(C4CC4)c4cccc(F)c34)N2)ccc1-n1cnc(C)c1` (single isomer, unassigned; (+)) [Example 222A, (+)-5-(1-cyclopropyl-4-fluoro-1H-indol-3-yl)-3-(6-methoxy-5-(4-methyl-1H-imidazol-1-yl)pyridin-2-yl)-5,6-dihydro-4H-1,2,4-oxadiazine]: the EC50 came out at 11.2 nM.

With `COc1nc(C2=NOCC(c3cn(C)c4cc(F)c(F)cc34)N2)ccc1-n1cnc(C)c1` (single isomer, unassigned; (+)) [Example 223B, (+)-5-(5,6-difluoro-1-methyl-1H-indol-3-yl)-3-(6-methoxy-5-(4-methyl-1H-imidazol-1-yl)pyridin-2-yl)-5,6-dihydro-4H-1,2,4-oxadiazine], the EC50 came out at 6.2 nM.

`COc1nc(C2=NOCC(c3ccc4ncccc4c3)N2)ccc1-n1cnc(C)c1` (single isomer, unassigned; (+)) [Example 224B, (+)-3-(6-methoxy-5-(4-methyl-1H-imidazol-1-yl)pyridin-2-yl)-5-(quinolin-6-yl)-5,6-dihydro-4H-1,2,4-oxadiazine] had an EC50 of 294 nM.

As to `COc1nc(C2=NOCC(c3ccc4c(c3)OC(F)(F)O4)N2)ccc1-n1cnc(C)c1` (single isomer, unassigned; (+)) [Example 225B], the response was half-maximal at 14 nM (EC50).

For `COc1nc(C2=NOCC(c3cn(C)c4cc(F)cc(F)c34)N2)ccc1-n1cnc(C)c1` (single isomer, unassigned; (+)) [Example 226A, (+)-5-(4,6-difluoro-1-methyl-1H-indol-3-yl)-3-(6-methoxy-5-(4-methyl-1H-imidazol-1-yl)pyridin-2-yl)-5,6-dihydro-4H-1,2,4-oxadiazine], the EC50 was determined as 9.4 nM.

Compound `COc1nc(C2=NOCC(c3ccc(C)cc3)N2)ccc1-n1cnc(C)c1` (single isomer, unassigned; (+)) [Example 227B, (+)-3-(6-methoxy-5-(4-methyl-1H-imidazol-1-yl)pyridin-2-yl)-5-(p-tolyl)-5,6-dihydro-4H-1,2,4-oxadiazine] showed an EC50 of 73.8 nM.

The compound `COc1nc(C2=NOCC(c3cn(C4CC4)c4cc(F)ccc34)N2)ccc1-n1cnc(C)c1` (single isomer, unassigned; (+)) [Example 228B, (+)-5-(1-cyclopropyl-6-fluoro-1H-indol-3-yl)-3-(6-methoxy-5-(4-methyl-1H-imidazol-1-yl)pyridin-2-yl)-5,6-dihydro-4H-1,2,4-oxadiazine] had a half-maximal effective concentration (EC50) of 8.4 nM.

`COc1nc(C2=NOCC(c3cn(C)c4cccc(C(F)(F)F)c34)N2)ccc1-n1cnc(C)c1` (single isomer, unassigned; (+)) [Example 230A, (+)-3-(6-methoxy-5-(4-methyl-1H-imidazol-1-yl)pyridin-2-yl)-5-(1-methyl-4-(trifluoromethyl)-1H-indol-3-yl)-5,6-dihydro-4H-1,2,4-oxadiazine] returned an EC50 of 105 nM.

As to `COc1nc(C2=NOCC(c3cn(C)c4c(F)cccc34)N2)ccc1-n1cnc(C)c1` (single isomer, unassigned; (+)) [Example 231B, (+)-5-(7-fluoro-1-methyl-1H-indol-3-yl)-3-(6-methoxy-5-(4-methyl-1H-imidazol-1-yl)pyridin-2-yl)-5,6-dihydro-4H-1,2,4-oxadiazine], a half-maximal response (EC50) required 10.8 nM.

The compound `COc1nc(C2=NOCC(c3nn(C)c4ccc(Cl)cc34)N2)ccc1-n1cnc(C)c1` (single isomer, unassigned; (+)) [Example 232B, (+)-5-(5-chloro-1-methyl-1H-indazol-3-yl)-3-(6-methoxy-5-(4-methyl-1H-imidazol-1-yl)pyridin-2-yl)-5,6-dihydro-4H-1,2,4-oxadiazine] yielded an EC50 of 12.9 nM.

`COc1nc(C2=NOCC(c3cn(C)c4ccc(C(F)(F)F)cc34)N2)ccc1-n1cnc(C)c1` (single isomer, unassigned; (+)) [Example 233B, (+)-3-(6-methoxy-5-(4-methyl-1H-imidazol-1-yl)pyridin-2-yl)-5-(1-methyl-5-(trifluoromethyl)-1H-indol-3-yl)-5,6-dihydro-4H-1,2,4-oxadiazine] showed an EC50 of 1.7 nM.

In turn, `COc1nc(C2=NOCC(c3cc4cc(C5CC5)ccc4o3)N2)ccc1-n1cnc(C)c1` (single isomer, unassigned; (+)) [Example 234B, (+)-5-(5-cyclopropylbenzofuran-2-yl)-3-(6-methoxy-5-(4-methyl-1H-imidazol-1-yl)pyridin-2-yl)-5,6-dihydro-4H-1,2,4-oxadiazine] yielded an EC50 of 9.5 nM.

As for `COc1nc(C2=NOCC(c3ccc(C(C)(C)C)cc3)N2)ccc1-n1cnc(C)c1` (single isomer, unassigned; (+)) [Example 235B, (+)-5-(4-(tert-butyl)phenyl)-3-(6-methoxy-5-(4-methyl-1H-imidazol-1-yl)pyridin-2-yl)-5,6-dihydro-4H-1,2,4-oxadiazine], the EC50 was 9.5 nM.

The compound `COc1nc(C2=NOCC(c3cc4ccc(C5CC5)cc4o3)N2)ccc1-n1cnc(C)c1` (single isomer, unassigned; (+)) [Example 236B, (+)-5-(6-cyclopropylbenzofuran-2-yl)-3-(6-methoxy-5-(4-methyl-1H-imidazol-1-yl)pyridin-2-yl)-5,6-dihydro-4H-1,2,4-oxadiazine] gave a concentration for a half-maximal effect (EC50) of 9.2 nM.
